Patent US9000189B2, “Biphenyl-substituted spirocyclic ketoenols” (Bayer CropScience AG, priority 2006, dated 2015)
Where two headings read alike, the source gives them in different places.

How the values were obtained:
[1] = tested on: green peach aphid (Myzus persicae); assay: Example 3: Myzus test (MYZUPE spray treatment); format: in vivo; conditions: 144 h, read-out: efficacy (effect in %, aphids killed)
[2] = Determination of the log P values by HPLC on a reversed-phase column (C18), acidic range; format: physicochemical; conditions: HPLC reversed-phase C18, 43° C., acidic range (pH 2.3)
Protocol: Determination of the Log P Values
The log P values given in the table were determined in accordance with EEC Directive 79/831 Annex V.A8 by HPLC (High Performance Liquid Chromatography) on a reversed-phase column (C18). Temperature: 43° C.
Mobile phases for the determination in the acidic range (pH 2.3): 0.1% aqueous phosphoric acid, acetonitrile; linear gradient from 10% acetonitrile to 90% acetonitrile
The calibration was carried out using unbranched alkan-2-ones (having 3 to 16 carbon atoms) with known log P values (determination of the log P values by the retention times using linear interpolation between two successive alkanones).
The lambda max values were determined in the maxima of the chromatographic signals using the UV spectra from 200 nm to 400 nm.

[3] = tested on: larvae of the mustard beetle (Phaedon cochleariae); assay: Example 1: Phaedon test (PHAECO spray treatment); conditions: 168 h, read-out: efficacy (effect in %, beetle larvae killed)
[4] = tested on: green peach aphid (Myzus persicae); assay: Example 13: activity boost through ammonium/phosphonium salts in combination with penetrants, Myzus persicae test; format: in vivo; conditions: for Kill (%) after 6 d +RME 1000 pm: +RME 1000 pm (rapeseed oil methyl ester 500 EW); for Kill (%) after 6 d: no additive, bell pepper plants sprayed to runoff
Description: Activity Boost Through Ammonium/Phosphonium Salts in Combination with Penetrants
(§1) Solvent: 7 parts by weight of dimethylformamide
(§2) Emulsifier: 2 parts by weight of alkylaryl polyglycol ether
(§3) For application with ammonium salts or phosphonium salts and penetration promoters (rapeseed oil methyl ester 500 EW) these are in each case added in a concentration of 1000 ppm to the spray liquor.
Bell pepper plants (Capsicum annuum) heavily infested by the green peach aphid (Myzus persicae) are sprayed to runoff point with the preparation of active compound at the desired concentration.
(§4) After the desired period of time, the kill in % is determined.

[5] = Example A: penetration of active compounds through enzymatically isolated cuticles of apple leaves; format: in vitro ADME, apple trees of the Golden Delicious variety; conditions: 500 ppm in DMF/emulsifier W 7:1 (w/w), 20° C., 60% rh
Description: Boosting of the penetration into the plant by ammonium salts or phosphonium salts, and synergistic boosting of penetration into the plants by ammonium/phosphonium salts in combination with penetration promoters
This test measured the penetration of active compounds through enzymatically isolated cuticles of apple leaves.
The leaves used were cut in the fully developed state from apple trees of the Golden Delicious variety. The cuticles were isolated as follows: • first of all, leaf discs labelled on the underside with dye and formed by punching were filled by means of vacuum infiltration with a pectinase solution (0.2% to 2% strength) buffered to a pH of between 3 and 4, • sodium azide was then added and • the leaf discs thus treated were left to stand until the original leaf structure broke down and the non-cellular cuticle underwent detachment.
After that, only those cuticles from the top leaf sides that were free from stomata and hairs were used. They were washed a number of times in alternation with water and a buffer solution of pH 7. The clean cuticles obtained were, finally, applied to Teflon plaques, smoothed with a gentle jet of air, and dried.
In the next step the cuticular membranes obtained in this way were placed in stainless steel diffusion cells (=transport chambers) for the purpose of membrane transport investigations. […]
The diffusion cells were filled with a 30% strength ethylene glycol/water solution. Penetration was determined by applying 10 μl of the spray liquor of the composition below to the outer side of each of the cuticles. […]
After the spray liquors had been applied, the water was evaporated and the chambers were inverted and placed into theromstated troughs, in which the temperature and humidity over the cuticles was adjustable by means of a gentle stream of air onto the cuticles, with the spray coating (20° C., 60% rh). At regular intervals, samples were taken using an autosampler, and the amount of active compound was determined using HPLC. […]

[6] = tested on: cotton aphid (Aphis gossypii); assay: Example 14: Aphis gossypii test (spray to runoff, with ammonium salts and penetrants); format: in vivo; conditions: for Kill (%) after 6 d +AS + RME 1000 ppm each: + AS and RME 1000 ppm each; for Kill (%) after 6 d +AS 1000 ppm: + ammonium sulphate 1000 ppm; for Kill (%) after 6 d +RME 1000 pm: + rapeseed oil methyl ester; for Kill (%) after 6 d: active compound alone
Description: as §1, §2, §3
Cotton plants (Gossypium hirsutum) which are heavily infested by the cotton aphid (Aphis gossypii) are sprayed to runoff point with the preparation of active compound at the desired concentration.
as §4

[7] = tested on: caterpillars of the army worm (Spodoptera frugiperda); assay: Example 2: Spodoptera frugiperda test (SPODFR spray treatment); format: in vivo; conditions: application rate 100 g/ha, after 7 d
[8] = application rate 500 g/ha, after 6 d
[9] = reversed-phase HPLC column (C18)

Compound: CCOC(=O)OC1=C(c2c(C)ccc(-c3ccc(F)cc3)c2C)C(=O)NC12CCOCC2 [Example I-1-c-1]
- pest or weed control at 500 g/ha [1, 8]: ≥ 80%

Compound: Cc1ccc(-c2cc(F)c(F)c(F)c2)cc1C1=C(O)C2(CCOCC2)OC1=O [Example I-2-a-14]
- logP [2]: 2.87

Compound: O=C1OC2(CCCC2)C(O)=C1c1cc(-c2ccc(F)c(F)c2)ccc1Cl [Example I-2-a-2]
- logP [2]: 3.19

Compound: CCOC(=O)OC1=C(c2cc(-c3ccc(F)cc3)ccc2C)C(=O)OC12CCCCC2 [Example I-2-c-1]
- pest or weed control at 500 g/ha [3]: ≥ 80%
- pest or weed control at 500 g/ha [1]: ≥ 80%
- chromatographic logP [2]: 4.84

Compound: Cc1ccc(-c2ccc(F)c(F)c2)c(C)c1C1=C(O)C2(CCOCC2)OC1=O [Example I-2-a-16]
- logP [2]: 2.88

Compound: Cc1ccc(-c2ccc(F)cc2)c(C)c1C1=C(OC(=O)C(C)C)C2(CCOCC2)OC1=O [Example I-2-b-2]
- pest or weed control at 500 g/ha [3]: ≥ 80%

Compound: Cc1ccc(-c2ccc(F)cc2)cc1C1=C(OC(=O)C(C)C)C2(CCCC2)OC1=O [Example I-2-b-1]
- chromatographic logP [2, 9]: 4.85

Compound: CCC(=O)OC1=C(c2c(C)ccc(-c3ccc(F)cc3)c2C)C(=O)NC12CCOCC2 [Example I-1-b-1]
- pest or weed control at 500 g/ha [1, 8]: ≥ 80%

Compound: Cc1ccc(-c2ccc(F)c(Cl)c2)cc1C1=C(O)C2(CCCC2)OC1=O [Example I-2-a-4]
- logP [2]: 3.50

Compound: O=C1OC2(CCCCC2)C(O)=C1c1cc(-c2ccc(F)c(F)c2)ccc1Cl [Example I-2-a-8]
- logP [2]: 3.48

Compound: O=C1OC2(CCCC2)C(O)=C1c1cc(-c2ccc(F)cc2)ccc1Cl [Example I-2-a-7]
- logP [2]: 3.09

Compound: Cc1ccc(-c2ccc(F)cc2)c(C)c1C1=C(O)C2(CCOCC2)NC1=O [Example I-1-a-4]
- Kill (%) after 6 d +AS 1000 ppm ([4]; 0.8 ppm active compound): 0%
- Kill (%) after 6 d +AS + RME 1000 ppm each ([4]; 0.8 ppm active compound): 5%
- Kill (%) after 6 d +RME 1000 pm ([4]; 0.8 ppm active compound): 0%
- Kill (%) after 6 d ([4]; 0.8 ppm active compound): 0%
- Kill (%) after 6 d +AS 1000 ppm ([4]; 4 ppm active compound): 20%
- Kill (%) after 6 d +AS + RME 1000 ppm each ([4]; 4 ppm active compound): 98%
- Kill (%) after 6 d +RME 1000 pm ([4]; 4 ppm active compound): 5%
- Kill (%) after 6 d ([4]; 4 ppm active compound): 15%
- Penetration after 24 h/% EC ([5]; EC alone, average of 8 to 10 measurements): 3%
- Penetration after 24 h/% EC + RME (1 g/l) + AS (1 g/l) ([5]; with rapeseed oil methyl ester 1 g/l and ammonium sulphate 1 g/l): 30%
- Penetration after 24 h/% EC + RME (1 g/l) ([5]; with rapeseed oil methyl ester 1 g/l): 8%

Compound: Cc1ccc(-c2ccc(F)cc2)c(C)c1C1=C(O)C2(CCOCC2)OC1=O [Example I-2-a-11]
- logP [2]: 2.76

Compound: COC1=C(c2c(C)ccc(-c3ccc(F)cc3)c2C)C(=O)NC12CCOCC2 [Example I-1-f-1]
- pest or weed control at 500 g/ha [3]: ≥ 80%
- pest or weed control at 500 g/ha [1, 8]: ≥ 80%

Compound: CCOC(=O)C1(OC(=O)Cc2cc(Br)ccc2C)CCCC1 [III-1′]
- chromatographic logP [2, 9]: 4.52

Compound: O=C1OC2(CCCCC2)C(O)=C1c1cc(-c2cc(F)c(F)c(F)c2)ccc1Cl [Example I-2-a-9]
- logP [2]: 3.65

Compound: COc1ccc(-c2ccc(C)c(C3=C(O)C4(CCOCC4)NC3=O)c2)cc1F [Example I-1-a-2]
- pest or weed control at 500 g/ha [3]: ≥ 80%
- pest or weed control at 500 g/ha [1, 8]: ≥ 80%

Compound: Cc1ccc(-c2ccc(F)cc2)cc1C1=C(O)C2(CCCCC2)OC1=O [Example I-2-a-15]
- pest or weed control at 500 g/ha [3]: ≥ 80%
- pest or weed control at 500 g/ha [1]: ≥ 80%
- chromatographic logP [2]: 3.4

Compound: O=C1NC2(CCOCC2)C(O)=C1c1cc(-c2ccc(F)c(C(F)(F)F)c2)ccc1Cl [Example I-1-a-24]
- pest or weed control at 500 g/ha [3]: ≥ 80%
- pest or weed control at 500 g/ha [1, 8]: ≥ 80%

Compound: O=C1OC2(CCCCC2)C(O)=C1c1cc(-c2ccc(F)cc2)ccc1Cl [Example I-2-a-10]
- logP [2]: 3.37

Compound: Cc1ccc(-c2ccc(F)c(F)c2)c(C)c1C1=C(OC(=O)C(C)C)C2(CCOCC2)OC1=O [Example I-2-b-3]
- pest or weed control at 500 g/ha [1, 8]: ≥ 80%

Compound: Cc1ccc(-c2ccc(F)c(F)c2)cc1C1=C(O)C2(CCCC2)OC1=O [Example I-2-a-3]
- logP [2]: 3.25

Compound: Cc1ccc(-c2ccc(F)cc2)cc1C1=C(O)C2(CCCC2)OC1=O [Example I-2-a-1]
- pest or weed control at 500 g/ha [3]: ≥ 80%
- pest or weed control at 500 g/ha [1, 8]: ≥ 80%
- chromatographic logP [2, 9]: 3.12

Compound: Cc1ccc(-c2ccc(F)c(F)c2)cc1C1=C(O)C2(CCOCC2)OC1=O [Example I-2-a-13]
- logP [2]: 2.69

Compound: CCOC(=O)C1(OC(=O)Cc2cc(-c3ccc(F)cc3)ccc2C)CCCCC1 [III-1]
- chromatographic logP [2, 9]: 5.43

Compound: Cc1ccc(-c2ccc(F)cc2)cc1C1=C(O)C2(CCOCC2)NC1=O [Example I-1-a-1]
- pest or weed control at 500 g/ha [3]: ≥ 80%
- pest or weed control at 500 g/ha [1, 8]: ≥ 80%
- Kill (%) after 6 d +AS 1000 ppm ([4]; 0.8 ppm active compound): 0%
- Kill (%) after 6 d +AS + RME 1000 ppm each ([4]; 0.8 ppm active compound): 15%
- Kill (%) after 6 d +RME 1000 pm ([4]; 0.8 ppm active compound): 0%
- Kill (%) after 6 d ([4]; 0.8 ppm active compound): 0%
- Kill (%) after 6 d +AS 1000 ppm ([4]; 4 ppm active compound): 15%
- Kill (%) after 6 d +AS + RME 1000 ppm each ([4]; 4 ppm active compound): 99%
- Kill (%) after 6 d +RME 1000 pm ([4]; 4 ppm active compound): 70%
- Kill (%) after 6 d ([4]; 4 ppm active compound): 0%
- Kill (%) after 6 d +AS + RME 1000 ppm each ([6]; 4 ppm): 60%
- Kill (%) after 6 d +AS 1000 ppm ([6]; 4 ppm): 0%
- Kill (%) after 6 d +RME 1000 pm ([6]; 4 ppm): 0%
- Kill (%) after 6 d ([6]; 4 ppm): 0%
- Kill (%) after 6 d +AS + RME 1000 ppm each ([6]; 20 ppm): 80%
- Kill (%) after 6 d +AS 1000 ppm ([6]; 20 ppm): 5%
- Kill (%) after 6 d +RME 1000 pm ([6]; 20 ppm): 15%
- Kill (%) after 6 d ([6]; 20 ppm): 0%

Compound: O=C1OC2(CCCC2)C(O)=C1c1cc(-c2ccc(F)cc2F)ccc1Cl [Example I-2-a-5]
- logP [2]: 3.16

Compound: O=C1OC2(CCCC2)C(O)=C1c1cc(-c2cc(F)c(F)c(F)c2)ccc1Cl [Example I-2-a-6]
- efficacy (effect in %, caterpillars killed) [7]: ≥ 80%
- logP [2]: 3.35

Compound: Cc1ccc(-c2ccc(F)cc2)cc1C1=C(O)C2(CCOCC2)OC1=O [Example I-2-a-12]
- logP [2]: 2.62
